Source: patent publication US10399931B2, “Octahydroanthracene compound, preparation method and application thereof” (SHANDONG XINHUA PHARMACEUTICAL CO., LTD., priority 2016, dated 2019)

Key:
[1] = tested on: tau protein; experiment: Tau protein phosphorylation; parameters: species or system mice; details: mouse, in vivo
[2] = tested on: APP/PS1 double transgenic AD model mice; experiment: Pathology of hippocampal CA1 neurons in APP/PS1 mice; format: in vivo
[3] = tested on: SYP, PSD95 and GAP43; experiment: Western blot of synaptic-related proteins in APP/PS1 mice; format: in vivo
Method: After the behavioral experiment, the animals were anesthetized with an intraperitoneal injection of 3.5% chloral hydrate and cut off the heads quickly to take out the brains. The hippocampus and cortex of the brain were separated on ice, and then weighed and quickly frozen with liquid nitrogen, placed in a refrigerator at −80° C. for standby application.
The tissue lysate (5 μL PMSF protease inhibitor per mL of lysate) was added to the frozen brain tissue at a ratio of […] (6 mL/g tissue), and ultrasonically homogenized in an ice bath. After homogenization, the tissue homogenate was placed in crushed ice for 30 min, and then centrifuged at 12,000×g for 20 min at 4° C. The supernatant (about 200 μL) was taken and stored in a refrigerator at −80° C. for later use. A portion of the supernatant was taken for protein quantification.
According to the kit instruction, BCA working reagent was prepared by mixing reagent A with reagent B at a ratio of 50:1 thoroughly. The BCA working reagent was freshly prepared for use at room temperature with a stable period of 24 h. […] (5) The absorbance of the protein (at a wavelength of 540 nm) was determined by a microplate reader. (6) The standard curve was made by Excel, and the concentration of the detected protein was calculated based on the standard curve. […]

[4] = tested on: mice; experiment: LD50 test, single intragastric dose (preliminary safety evaluation); format: in vivo; details: 5000 mg/kg intragastric
[5] = tested on: APP/PS1 transgenic mice; experiment: Social interaction experiment; format: in vivo; details: 200 mg/kg
Method: The social interaction device was composed of a square box (length×width×height: 50 cm×50 cm×15 cm). The behavioral laboratory used diffuse and dim light (25 W) and tried to avoid environmental stress caused by shadows in the experimental area. Before the social interaction experiment, in order to eliminate the influence of unfamiliar environment, each mouse was placed in the experimental device alone to adapt to the environment, 10 min each day for two consecutive days. At the beginning of the test on day 3, the mouse was randomly paired with another strange partner. Two groups of experimental animals were placed in the experimental device at the same time, and the time spent by the mice in the active social interaction behavior was recorded. The test time was 10 min, including sniffing, combing, and scratching or chasing each other. However, passive contact activities (overwhelmed or being ridden by the other mouse, etc.) are not recorded in the social interaction behavior. After each test, 1% bromo geramine was used to disinfect the social interaction device.

CC1(C)CCC(C)(C)c2c1cc1c(c2NC(=O)c2ccc(NC(=O)NCCN)cc2)C(C)(C)CCC1(C)C [OAB-14, 1-(2-amino) ethyl-3-{4-[(1,1,4,4,5,5,8,8-octamethyl-1,2,3,4,5,6,7,8-octahydro-9-anthryl)carbamoyl]phenyl} urea]
Tau protein phosphorylation [1]: reducing the tau protein phosphorylation
Morphology of hippocampal CA1 neurons ([2]; 100 mg/kg group): closely arranged, no visible edema and nuclear pyknosis
Morphology of hippocampal CA1 neurons ([2]; 200 mg/kg group): closely arranged, no visible edema and nuclear pyknosis
Expression of synaptic-related proteins SYP, PSD95 and GAP43 ([3]; 100 mg/kg group): significantly increased
Expression of synaptic-related proteins SYP, PSD95 and GAP43 ([3]; 200 mg/kg group): significantly increased
Abnormalities in organs such as heart, liver, spleen and kidney [4]: no abnormalities were detected
Adverse reactions observed with the naked eye [4]: no visible adverse reactions were observed
Active contact time vs model group [5]: significantly increased
